Assay: Storage stability / shelf life of F-18 labeling precursors
Assay type: physicochemical
Conditions: for stability to storage compared to the tosylate and 4-bromo-tosylate derivatives: comparison in the FIG. 1C legend; for stability on storage: stored below 0 C

Compound	stability to storage compared to the tosylate and 4-bromo-tosylate derivatives	stability on storage
CC(=O)OCC1OC(OC2C(COC(C)=O)OC(OC3C(COC(C)=O)OC(OCCCn4cc(CCCBr)nn4)C(OC(C)=O)C3OC(C)=O)C(OC(C)=O)C2OC(C)=O)C(OC(C)=O)C(OC(C)=O)C1OC(C)=O (stereo not shown) [3-bromopropyl-precursor, 2-(acetoxymethyl)-6-((4,5-diacetoxy-2-(acetoxymethyl)-6-((4,5-diacetoxy-2-(acetoxymethyl)-6-(3-(4-(3-bromopropyl)-1H-1,2,3-triazol-1-yl)propoxy)tetrahydro-2H-pyran-3-yl)oxy)tetrahydro-2H-pyran-3-yl)oxy)tetrahydro-2H-pyran-3,4,5-triyl triacetate]	more statable to storage	stable
CC(=O)OCC1OC(OC2C(COC(C)=O)OC(OC3C(COC(C)=O)OC(OCCCn4cc(CCCI)nn4)C(OC(C)=O)C3OC(C)=O)C(OC(C)=O)C2OC(C)=O)C(OC(C)=O)C(OC(C)=O)C1OC(C)=O (stereo not shown) [3-iodopropyl-precursor, 2-(acetoxymethyl)-6-((4,5-diacetoxy-2-(acetoxymethyl)-6-((4,5-diacetoxy-2-(acetoxymethyl)-6-(3-(4-(3-iodopropyl)-1H-1,2,3-triazol-1-yl)propoxy)tetrahydro-2H-pyran-3-yl)oxy)tetrahydro-2H-pyran-3-yl)oxy)tetrahydro-2H-pyran-3,4,5-triyl triacetate]	more statable to storage	stable

Source: US20240299597A1, “3-Iodopropyl-1,2,3-Triazol-1-yl, 3-Bromopropyl-1,2,3-Triazol-1-yl, and Derivatives for Uses in Labeling” (Emory University, priority 2021, published 2024)
